Assay results: paper PMC2765170 (PLoS ONE, 2009)

Columns and labels:
[1] = target: CoaE (M. tuberculosis dephosphocoenzyme A kinase, Rv1631) (Mycobacterium tuberculosis, UniProt P9WPA3); assay: biochemical; format: binding; settings: read-out: Ka (M^-1*104) (converted)
[2] = tested on: CC(C)(COP(=O)(O)OP(=O)(O)OC[C@H]1O[C@@H](n2cnc3c(N)ncnc32)[C@H](O)[C@@H]1O)[C@@H](O)C(=O)NCCC(=O)NCCS; assay: purified protein; settings: co-substrate ATP, MgCl2, 25°C
[3] = tested on: Nc1ncnc2c1ncn2[C@@H]1O[C@H](COP(=O)(O)OP(=O)(O)OP(=O)(O)O)[C@@H](O)[C@H]1O; assay: purified protein; settings: co-substrate DCoA, MgCl2, 25°C
[4] = tested on: Nc1ncnc2c1ncn2[C@H]1C[C@H](O)[C@@H](COP(=O)(O)OP(=O)(O)OP(=O)(O)O)O1; assay: purified protein; settings: alternate phosphate donor, co-substrate DCoA

Chain of CoaE (M. tuberculosis dephosphocoenzyme A kinase, Rv1631) (P9WPA3 whole entry): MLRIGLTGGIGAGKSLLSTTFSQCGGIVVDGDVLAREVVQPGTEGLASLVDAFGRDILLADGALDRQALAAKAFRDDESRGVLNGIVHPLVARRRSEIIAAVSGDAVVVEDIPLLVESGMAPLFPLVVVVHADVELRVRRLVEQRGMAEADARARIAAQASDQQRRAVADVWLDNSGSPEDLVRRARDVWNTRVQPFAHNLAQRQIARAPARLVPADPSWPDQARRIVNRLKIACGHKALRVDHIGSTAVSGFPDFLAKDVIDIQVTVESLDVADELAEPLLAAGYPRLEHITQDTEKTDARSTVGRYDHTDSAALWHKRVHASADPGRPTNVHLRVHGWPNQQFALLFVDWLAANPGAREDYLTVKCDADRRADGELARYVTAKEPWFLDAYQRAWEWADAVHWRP

With `Nc1ncnc2c1ncn2[C@@H]1O[C@H](COP(=O)(O)OP(=O)(O)O)[C@@H](O)[C@H]1O` [ADP] as the compound, how does the Kd [1] read?
Its Kd is 49.3 µM.

How did the Kd [1] turn out when `Nc1ccn([C@@H]2O[C@H](COP(=O)(O)OP(=O)(O)OP(=O)(O)O)[C@@H](O)[C@H]2O)c(=O)n1` [CTP] was run?
Its Kd is 62.9 µM.

`Nc1ncnc2c1ncn2[C@H]1C[C@H](O)[C@@H](COP(=O)(O)OP(=O)(O)OP(=O)(O)O)O1` [dATP] was tested. Which Kd [1] did it give?
The Kd was 57.5 µM.

“CoaE (M. tuberculosis dephosphocoenzyme A kinase, Rv1631) (Mycobacterium tuberculosis H37Rv)” was tested. Which Km [2] did it give?
Its Km is 34.9 µM.

What about the Km [3] of the same compound?
The Km was 56.8 µM.

What about the Km [4] of the same compound?
Its Km is 320 µM.
